Assay [1] deals with Acetylcholinesterase (Homo sapiens, UniProt P22303). The assay can be described thus: Inhibition of human recombinant AChE preincubated for 1 min in presence of DNTB followed by addition of acetylthiocholine iodide substrate and measured after 20 mins by Ellman's method. For orientation: DTNB colorimetry detects thiols as they appear.
Assay [2] has as its target Acetylcholinesterase (Electrophorus electricus, UniProt O42275). As to the kind of experiment: Inhibition of electric eel recombinant AChE preincubated for 1 min in presence of DNTB followed by addition of acetylthiocholine iodide substrate and measured after 20 mins by Ellman's method.
For assay [3], the target named is Glycogen synthase kinase-3 beta (Homo sapiens, UniProt P49841). As to the kind of experiment: Inhibition of human recombinant N-terminal His-tagged GSK3beta expressed in Escherichia coli using RRRPASVPPSPSLS RHS(pS)HQRR as substrate incubated for 30 mins in presence of ATP by Kinase-Glo reagent based luminescence assay. On the technique in general: Kinase-Glo reads ATP consumption through a luciferase reaction.
Chain of Glycogen synthase kinase-3 beta (P49841 whole entry): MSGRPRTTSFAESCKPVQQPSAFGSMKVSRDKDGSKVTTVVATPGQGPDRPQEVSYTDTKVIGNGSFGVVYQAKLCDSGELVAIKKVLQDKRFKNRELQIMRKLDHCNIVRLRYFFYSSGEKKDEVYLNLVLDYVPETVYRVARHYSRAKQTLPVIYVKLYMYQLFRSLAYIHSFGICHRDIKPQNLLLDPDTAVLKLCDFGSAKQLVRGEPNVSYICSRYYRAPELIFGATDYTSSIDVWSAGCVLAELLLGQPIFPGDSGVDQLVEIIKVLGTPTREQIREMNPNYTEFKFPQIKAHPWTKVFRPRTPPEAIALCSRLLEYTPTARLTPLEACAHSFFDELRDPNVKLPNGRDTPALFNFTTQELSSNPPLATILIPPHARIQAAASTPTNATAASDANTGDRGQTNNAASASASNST

In assay [4] the test system is Mus musculus. The assay can be described thus: Cognitive enhancing effect in mouse model of scopolamine-induced amnesia assessed as decrease in escape latency at 10 mg/kg/day, po measured by Morris water maze test. Type of assay: functional, organism-based.
Assay [5] concerns Mus musculus. As to the kind of experiment: Improvement in learning and spatial memory in amyloid beta (1 to 42)-induced mouse model of Alzheimer's disease assessed as increase in spontaneous alteration at 10 mg/kg/day, po pretreated with amyloid beta42 for 3 days followed by treatment with compound and measured after 9 days measured by Y-maze test. Format: functional, organism-based. To be noted: time 9.0 day.

The test system of assay [6] is Mus musculus. As to the kind of experiment: Improvement in learning and spatial memory in amyloid beta (1 to 42)-induced mouse model of Alzheimer's disease at 10 mg/kg/day, po pretreated with amyloid beta42 for 3 days followed by treatment with compound and measured after 9 days measured by Y-maze test. Type of assay: functional, organism-based. To be noted: time 9.0 day.

pIC50: −log10 of the molar value. Activity calls are given as the source filed them. No cut-off for these calls is given here.

Chain of Acetylcholinesterase (Electrophorus electricus, UniProt O42275) (O42275 whole entry): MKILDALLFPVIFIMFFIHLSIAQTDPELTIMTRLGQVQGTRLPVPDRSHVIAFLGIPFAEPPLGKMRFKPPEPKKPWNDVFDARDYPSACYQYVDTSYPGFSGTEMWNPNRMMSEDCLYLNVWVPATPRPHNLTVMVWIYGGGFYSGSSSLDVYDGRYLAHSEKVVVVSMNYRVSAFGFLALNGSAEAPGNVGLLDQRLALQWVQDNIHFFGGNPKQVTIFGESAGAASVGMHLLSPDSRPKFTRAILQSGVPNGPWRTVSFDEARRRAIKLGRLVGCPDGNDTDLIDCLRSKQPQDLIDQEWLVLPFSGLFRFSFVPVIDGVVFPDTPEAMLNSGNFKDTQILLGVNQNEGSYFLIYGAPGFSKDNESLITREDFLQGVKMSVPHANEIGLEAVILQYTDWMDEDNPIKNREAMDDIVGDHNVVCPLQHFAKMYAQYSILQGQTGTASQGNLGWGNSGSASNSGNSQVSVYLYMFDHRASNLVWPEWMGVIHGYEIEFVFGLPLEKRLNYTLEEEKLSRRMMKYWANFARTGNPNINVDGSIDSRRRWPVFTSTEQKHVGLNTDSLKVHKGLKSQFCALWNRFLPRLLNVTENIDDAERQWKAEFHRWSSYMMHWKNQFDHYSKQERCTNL
Chain of Acetylcholinesterase (Homo sapiens, UniProt P22303) (P22303 whole entry): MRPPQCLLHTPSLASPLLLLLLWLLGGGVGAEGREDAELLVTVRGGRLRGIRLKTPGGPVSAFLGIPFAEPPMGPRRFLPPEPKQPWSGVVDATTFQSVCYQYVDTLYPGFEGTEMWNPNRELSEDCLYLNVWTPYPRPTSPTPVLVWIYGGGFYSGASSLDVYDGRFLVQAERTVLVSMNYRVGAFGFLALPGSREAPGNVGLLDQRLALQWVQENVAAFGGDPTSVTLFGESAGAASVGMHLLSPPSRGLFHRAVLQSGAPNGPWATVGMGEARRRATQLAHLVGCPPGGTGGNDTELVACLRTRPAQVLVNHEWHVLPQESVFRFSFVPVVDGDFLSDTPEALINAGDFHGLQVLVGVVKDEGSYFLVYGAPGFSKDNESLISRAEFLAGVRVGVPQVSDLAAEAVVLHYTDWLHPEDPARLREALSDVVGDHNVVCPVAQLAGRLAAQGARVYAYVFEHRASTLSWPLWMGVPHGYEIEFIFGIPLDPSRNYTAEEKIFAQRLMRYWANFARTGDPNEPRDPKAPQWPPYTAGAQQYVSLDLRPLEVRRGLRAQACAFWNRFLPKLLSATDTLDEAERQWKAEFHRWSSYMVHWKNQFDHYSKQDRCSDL

What is called pIC50 is the IC50 on a negative log10 scale, so that one unit is a factor of ten. As for `O=C(CC1CCN(Cc2ccc(F)cc2)CC1)Nc1n[nH]c2cc(-c3cccnc3)ccc12`, the pIC50 is 6.29 in assay [1], 6.67 in assay [2] and below 5.00 in assay [3].

Regarding `O=C(CC1CCN(Cc2ccccc2F)CC1)Nc1n[nH]c2cc(-c3cccnc3)ccc12`, the pIC50 in assay [1] was 6.16; in assay [2], 6.41; in assay [3] it was below 5.00.

`O=C(NCC1CCN(Cc2ccccc2)CC1)c1n[nH]c2ccc(-c3cccnc3)cc12`: the figures for the pIC50 in assay [1], in assay [2] and in assay [3] were 5.96, 6.26 and 7.02, respectively.

As to `O=C(NCC1CCN(Cc2ccccc2F)CC1)c1cncc(NC(=O)c2ccnc(NC(=O)C3CC3)c2)c1`, the results for the negative-log IC50 (pIC50) in assay [1], in assay [2] and in assay [3] were 5.76, 5.76 and 6.79, respectively.

Take `O=C(NC1CCN(Cc2ccc(F)cc2)CC1)c1cncc(NC(=O)c2ccnc3[nH]ccc23)c1`: the pIC50 was 6.64 in assay [1], 6.39 in assay [2] and 5.31 in assay [3].

As to `CC(=O)Nc1cc(C(=O)Nc2cccc(OCC3CCN(Cc4ccccc4)CC3)c2)ccn1`, the pIC50 is below 5.00 in assay [1], 5.66 in assay [2] and below 5.00 in assay [3].

With `O=C(NCC1CCN(Cc2cccc(F)c2)CC1)c1cncc(NC(=O)c2ccnc(NC(=O)C3CC3)c2)c1`, the figures for the pIC50 in assay [1], in assay [2] and in assay [3] were 5.62, 5.99 and 7.01, respectively.

Regarding `O=C(Nc1cncc(OCC2CCN(Cc3ccccc3F)CC2)c1)c1ccnc(NC(=O)C2CC2)c1`, the pIC50 in assay [1] was 8.33; in assay [2] it was 8.00; in assay [3], 7.11.

Take `O=C(NCC1CCN(Cc2ccccc2)CC1)c1cncc(NC(=O)c2ccnc(NC(=O)C3CC3)c2)c1`: the results for the pIC50 in assay [1], in assay [2] and in assay [3] were 5.96, 5.96 and 6.52, respectively.

With `O=C(NCC1CCN(Cc2ccccc2F)CC1)c1n[nH]c2ccc(-c3cccnc3)cc12`, the values for the pIC50 in assay [1], in assay [2] and in assay [3] were 5.66, 6.14 and 7.10, respectively.

Take `O=C(Nc1cccc(OCC2CCN(Cc3ccc(F)cc3)CC2)c1)c1ccnc(NC(=O)C2CC2)c1`: the pIC50 in assay [2] and in assay [3] was below 5.00 each time.

Consider `O=C(Nc1cncc(OCC2CCN(Cc3ccccc3Cl)CC2)c1)c1ccnc(NC(=O)C2CC2)c1`, for which the pIC50 in assay [1] is 7.09; in assay [2], 7.01; in assay [3], 7.10.

In the case of `O=C(CC1CCN(Cc2ccccc2)CC1)Nc1n[nH]c2cc(-c3cccnc3)ccc12`, the negative logarithm of the IC50 (pIC50) in assay [1] is 6.29; in assay [2], 6.58; in assay [3], below 5.00.

For the molecule `O=C(NCC1CCN(Cc2cccc(Cl)c2)CC1)c1cncc(NC(=O)c2ccnc3[nH]ccc23)c1`, the negative-log IC50 (pIC50) in assay [1] is 5.88; in assay [2] it was 6.06; in assay [3] it was below 5.00.

In the case of `Cc1cccc(CN2CCC(CNC(=O)c3cncc(NC(=O)c4ccnc(NC(=O)C5CC5)c4)c3)CC2)c1`, the results for the pIC50 in assay [1], in assay [2] and in assay [3] were 2.20, 5.38 and 6.70, respectively.

`O=C(NCC1CCN(Cc2ccc(F)c(F)c2)CC1)c1cncc(NC(=O)c2ccnc(NC(=O)C3CC3)c2)c1`: the pIC50 in assay [1] was 5.51; in assay [2], 5.98; in assay [3], 6.55.

For the molecule `CC(=O)Nc1cc(C(=O)Nc2cccc(OCC3CCN(Cc4ccc(F)cc4)CC3)c2)ccn1`, the negative logarithm of the IC50 (pIC50) in assay [2] and in assay [3] was below 5.00 each time.

Take `COc1cccc(CN2CCC(CNC(=O)c3cncc(NC(=O)c4ccnc(NC(=O)C5CC5)c4)c3)CC2)c1`: the pIC50 in assay [1] was below 5.00; in assay [2], 5.05; in assay [3], 6.90.

Consider `O=C(NCCC1CCN(Cc2cccc(Cl)c2)CC1)c1cncc(NC(=O)c2ccnc(NC(=O)C3CC3)c2)c1`, for which, in assay [3], the pIC50 was 6.82.

Consider `O=C(NCC1CCN(Cc2ccc(F)cc2)CC1)c1cncc(NC(=O)c2ccnc(NC(=O)C3CC3)c2)c1`, for which the pIC50 was 5.52 in assay [1], 5.94 in assay [2] and 6.61 in assay [3].

`COc1cc2c(cc1OC)C(=O)C(CC1CCN(Cc3ccccc3)CC1)C2` (configuration not stated) [DONEPEZIL]: the pIC50 in assay [3] was below 5.00. The result in assay [4], in assay [5] and in assay [6] was Active.

Take `CC(=O)Nc1cc(C(=O)Nc2cncc(OCC3CCN(Cc4ccc(F)cc4)CC3)c2)ccn1`: the negative logarithm of the IC50 (pIC50) in assay [1] was 8.05; in assay [2], 7.80; in assay [3], 5.45.

With `O=C(Nc1cncc(OC2CCN(Cc3ccccc3)CC2)c1)c1ccnc(NC(=O)C2CC2)c1`, the figures for the pIC50 in assay [1], in assay [2] and in assay [3] were below 5.00, 5.01 and 6.13, respectively.

Regarding `O=C(Nc1cncc(C(=O)NC2CCN(Cc3ccccc3)CC2)c1)c1ccnc(NC(=O)C2CC2)c1`, the values for the pIC50 in assay [1], in assay [2] and in assay [3] were 6.21, 6.15 and 7.09, respectively.

With `O=C(Nc1cncc(OCC2CCN(Cc3ccccc3)CC2)c1)c1ccnc2[nH]ccc12`, the pIC50 was 8.41 in assay [1], 8.64 in assay [2] and 6.08 in assay [3].

Regarding `O=C(Nc1cncc(C(=O)NC2CCN(Cc3cccc(Cl)c3)CC2)c1)c1ccnc(NC(=O)C2CC2)c1`, the pIC50 in assay [1] was 5.60; in assay [2], 6.02; in assay [3], 7.20.

With `O=C(NCC1CCN(Cc2cccc(Cl)c2)CC1)c1cncc(NC(=O)c2ccnc(NC(=O)C3CC3)c2)c1`, the pIC50 was 5.96 in assay [1], 6.17 in assay [2] and 6.64 in assay [3].

Turning to `O=C(NC1CCN(Cc2ccccc2)CC1)c1cncc(NC(=O)c2ccnc3[nH]ccc23)c1`, the pIC50 in assay [1] is 6.45; in assay [2], 6.51; in assay [3], 5.17.

As for `Cc1ccccc1CN1CCC(CNC(=O)c2cncc(NC(=O)c3ccnc(NC(=O)C4CC4)c3)c2)CC1`, the results for the pIC50 in assay [1], in assay [2] and in assay [3] were 5.39, 5.45 and 6.80, respectively.

In the case of `O=C(Nc1cccc(OCC2CCN(Cc3ccccc3)CC2)c1)c1ccnc(NC(=O)C2CC2)c1`, the pIC50 in assay [1] was 5.86; in assay [2], 6.07; in assay [3], 5.01.

For the origin of these results see ChEMBL document CHEMBL4831493 (Eur J Med Chem, 2021).
